Measured values from patent publication US6432883B1, “Methods of treating plants with glycolic acid” (Emerald BioAgriculture Corporation, priority 2000, dated 2002).
Marks after values point to notes of the source that are not given here.

Assays:
[1] = tested on: Sclerotinia minor; test: Excised lettuce leaves, post-harvest pathogen stress: disease index; format: in vivo; conditions: for Disease Index [(severity)(% incidence)/100]: 3 days post-inoculation
Excerpt: Waldmann's MTO dark green Grand Rapids leaf lettuce seed, lot# 15529, was purchased from Johnny's Selected Seeds, Albion, Me., and broadcast seeded into 10×20×2′ flats. Circular steel-blue blotter papers (Anchor Paper Co, St. Paul, Minn.) were fitted into disposable petri dishes. Treatments consisted of non-inoculated and inoculated groups of non-treated (NTC), water and 0.01% surfactant-blank (SB) controls and 10, 25, 75,150, 500 and 1000 ppm of glycolic acid.
Blotters were saturated with 4.5 ml sterile tap water. Individual leaves (20) were excised and placed into a treatment solution for 5 seconds or left non-treated. Excess fluid was removed from the leaf surface. These leaves were then placed singly, 1 leaf per dish and adaxial side up, on the moist blotters. Dish lids were replaced and dishes stacked, bagged and returned to the petri dish box for 24 hours dark storage at room temperature (68-72° F.).
Inoculum (Sclerotinia minor hyphal fragments and sclerotia) was grown on potato dextrose agar (PDA) plates until the sclerotia were black and hard. These were blended into a paste with non-inoculated PDA and sterile tap water. A small spot of inoculum paste containing hyphal fragments and 2-3 sclerotia was dotted onto the center of 16 of the 20 leaf pieces per treatment stack 24 hours after test substance application.
Due to the nature of Sclerotinia as a pathogen, disease is generally an all-or-nothing phenomenon. Therefore, it is necessary to assess both disease incidence and disease severity to give an accurate representation of the disease progression. Disease severity assessment was made at 3 days±2 hours post-inoculation by measuring the radius of colonized tissue in mm. Disease incidence was assessed as the presence or absence of infection (number of diseased leaves/ number of leaves tested) 100=% incidence. Multiplying the average severity by the % incidence and dividing by 100 then combined both evaluations into one assessment number and created a disease index value. The results in Table 5 below show this value for each treatment.

[2] = tested on: Sclerotinia minor; test: Cabbage pathogen stress: disease severity rating, fresh and dry weights; format: in vivo; conditions: for Dry Weight / Fresh Weight: cabbage under pathogen stress; for Disease Severity Rating: cabbage, 1-9 rating scale
Method: Market Prize, F1 cabbage seed, lot 88955, was purchased from Harris Seeds, Inc., Rochester, N.Y. These were grown 8 plants per 1 gallon pot, 1 pot per experimental unit and 3 experimental units per each of 3 replications. The plants were spray-treated first at 4 true leaves and again 14 days later with 8 ml per pot. The pathogen stress (Sclerotinia minor hyphal fragments and sclerotia, cultured on potato dextrose agar) was applied to the plant stems at the soil/stem interface at 4 days following the second treatment application.
Treatments consisted of non-inoculated and inoculated groups of non-treated (NTC), water and 0.05% surfactant-blank (SB) controls and 1, 5, 10, 25, 37.5 and 75 ppm of glycolic acid.
Disease assessment was made just prior to harvest by means of a 1-9 based rating scale. Each plant was harvested at the soil line for yield fresh and dry weights. The results in Table 2 below show the data for each treatment and the rating scale definitions.

[3] = tested on: Sclerotinia minor; test: Colony radius of plant pathogen on amended potato dextrose agar; format: cell-based; conditions: in PDA, 4 days, about 23° C., FIG. 5
Excerpt: Sclerotinia minor culture SaM-18 was received from Krishna Subbarro, Ph.D., Univ. Calif., Davis. Potato dextrose agar (PDA) powder was purchased from Baltimore Biological Laboratory, Inc. (BBL), ammonium glycolate and glycolic acid from DuPont Specialty Chemicals and BreakThru® surfactant from Goldschmidt Chemical Corp.
PDA was made, poured into sterile disposable petri dishes (100×15 mm) and inoculated with S. minor sclerotia to start new cultures on day zero. These cultures had reached an appropriate stage of maturation for use for use in the test after two weeks of growth. Multiple 1 liter containers of PDA were made and autoclaved on day 14. These PDA containers remained in the circulating water bath at 46° C. until the solutions were ready for addition (about 2 hrs.). The glycolic acid-containing compositions were added to the 46° C. PDA through a syringe-tip 0.2 μm-pore sterile filtration disc in a positive laminar-flow sterile hood and thoroughly mixed before returning to the 46° C. water bath to await pouring. Stacks of 22 dishes were poured for each medium type and allowed to solidify and cool overnight.
On day 15, soft, white to gray, sclerotial clumps of hyphae were picked from the culture dishes with heat sterilized forceps and one clump was transferred to the center of each test medium dish. Twenty dishes of each inoculated medium were stacked and replaced into the plastic sleeves they were originally packaged in for incubation at room temperature (about 23° C.). After 4 days of growth, some of the cultures had just reached the edges of the medium. The radius of each colony was measure in mm.
Treatments were water controls, 0.05% surfactant controls, 5, 15, 50, 75 and 100 ppm of glycolic acid (F12) and 5, 15, 50, 100 and 750 ppm of ammonia-neutralized glycolic acid (F18; i.e., ammonium glycolate).

[4] = tested on: cabbage; test: Cabbage drought stress: fresh and dry weights; format: in vivo; conditions: drought, water withheld 13 days, 5, 15, 50 ppm
Method: Market Prize, F1 cabbage seed, lot 88955, as described in example 7, was treated identically as in example 7, except that drought stress was imposed by withholding water 7 days following the second spray and continuing to withhold water for 13 sequential days thereafter. Drought tolerance was assessed by measuring both the fresh and dried weights of the plants.

O=C(O)CO [glycolic acid]
Disease Index [(severity)(% incidence)/100] ([1]; 10 ppm leaf dip): 1.2
disease severity versus control lettuce ([1]; 25 ppm and 75 ppm, lettuce leaves, α=0.05): statistically significant (α=0.05) decrease
Disease Index [(severity)(% incidence)/100] ([1]; 25 ppm leaf dip): 0.1*
Disease Index [(severity)(% incidence)/100] ([1]; 75 ppm leaf dip): 0.5*
Disease Index [(severity)(% incidence)/100] ([1]; 150 ppm leaf dip): 1.3
Disease Index [(severity)(% incidence)/100] ([1]; 500 ppm leaf dip): 1.1
Disease Index [(severity)(% incidence)/100] ([1]; 1000 ppm leaf dip): 2.0
Dry Weight ([2]; 1 ppm spray): 38.3 g
Fresh Weight ([2]; 1 ppm spray): 359 g
Disease Severity Rating ([2]; 1 ppm spray): 3.6
Dry Weight ([2]; 5 ppm spray): 39.8 g
Fresh Weight ([2]; 5 ppm spray): 346 g
Disease Severity Rating ([2]; 5 ppm spray): 3.7
Dry Weight ([2]; 10 ppm spray): 40.9 g
Fresh Weight ([2]; 10 ppm spray): 342 g
Disease Severity Rating ([2]; 10 ppm spray): 2.8
Dry Weight ([2]; 25 ppm spray): 39.1 g
Fresh Weight ([2]; 25 ppm spray): 364 g
Disease Severity Rating ([2]; 25 ppm spray): 2.2
disease severity versus control ([2]; 37.5 and 75 ppm, α=0.05): statistically significant (α=0.05) decrease
fresh weight versus control ([2]; 37.5 ppm): statistically significant increase
Dry Weight ([2]; 37.5 ppm spray): 39.0 g
Fresh Weight ([2]; 37.5 ppm spray): 381* g
Disease Severity Rating ([2]; 37.5 ppm spray): 1.7*
dry weight versus control ([2]; 75 ppm): statistically significant increase
Dry Weight ([2]; 75 ppm spray): 41.5* g
Fresh Weight ([2]; 75 ppm spray): 354 g
Disease Severity Rating ([2]; 75 ppm spray): 2.0*
growth of Sclerotinia minor (colony radius) compared to controls [3]: statistically significantly increased the growth
fresh weight of the cabbage compared to controls ([4]; FIG. 3): statistically significantly increased
dry weight of the cabbage compared to controls ([4]; FIG. 4): statistically significantly increased
